Where two headings read alike, the source gives them in different places.
Experiments:
[1] = molecular target: T1, human adrenergic-α2C receptor (Homo sapiens, UniProt P18825); assay: Radioligand binding experiment for α2C-adrenoceptor ([3H]raulwolscine, CHO cell membranes)
T1 construct: expressed in transfected cells; host or cells: CHO cells, stably transfected; membranes
T1 sequence (P18825 1-462): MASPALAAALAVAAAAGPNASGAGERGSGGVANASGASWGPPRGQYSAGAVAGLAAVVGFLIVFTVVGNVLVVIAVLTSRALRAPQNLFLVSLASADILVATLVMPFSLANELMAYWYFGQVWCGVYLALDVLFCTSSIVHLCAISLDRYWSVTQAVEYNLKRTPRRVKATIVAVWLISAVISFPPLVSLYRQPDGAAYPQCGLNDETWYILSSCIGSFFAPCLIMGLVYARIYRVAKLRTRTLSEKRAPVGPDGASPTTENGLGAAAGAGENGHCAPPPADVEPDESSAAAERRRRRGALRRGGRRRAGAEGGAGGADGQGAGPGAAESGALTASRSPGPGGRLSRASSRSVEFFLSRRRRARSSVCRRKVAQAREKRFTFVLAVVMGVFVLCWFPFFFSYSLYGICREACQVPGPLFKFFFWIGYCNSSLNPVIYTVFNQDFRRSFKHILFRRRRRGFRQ
Experimental: (§1) The interaction of a compound of Formula (I) with α2C-adrenoceptor receptors was assessed in in vitro radioligand binding experiments. In general, a low concentration of a radioligand with a high binding affinity for a particular receptor or transporter is incubated with a sample of a tissue preparation enriched in a particular receptor or transporter or with a preparation of cells expressing cloned human receptors in a buffered medium. During the incubation, the radioligand binds to the receptor or transporter. When equilibrium of binding is reached, the receptor bound radioactivity is separated from the non-bound radioactivity, and the receptor- or transporter-bound activity is counted. The interaction of the test compounds with the receptor is assessed in competition binding experiments. Various concentrations of the test compound are added to the incubation mixture containing the receptor- or transporter preparation and the radioligand. The test compound in proportion to its binding affinity and its concentration inhibits binding of the radioligand. The radioligand used for hα2A and hα2C receptor binding was [^3H]-raulwolscine.
(§2) CHO cells, stabile transfected with human adrenergic-α2A and α2C receptor cDNA, were cultured in Dulbecco's Modified Eagle's Medium (DMEM)/Nutrient mixture Ham's F12 (ratio 1:1) (Gibco, Gent-Belgium) supplemented with 10% heat inactivated fetal calf serum (Life Technologies, Merelbeke-Belgium) and antibiotics (100 IU/ml penicillin G, 100 μg/ml streptomycin sulphate, 110 μg/ml pyruvic acid and 100 μg/ml L-glutamine). One day before collection, cells were induced with 5 mM sodiumbutyrate. Upon 80-90% of confluence, cells were scraped in phosphate buffered saline without Ca^2+ and Mg^2+ and collected by centrifugation at 1500×g for 10 minutes. The cells were homogenised in Tris-HCl 50 mM using an Ultraturrax homogenizer and centrifuged for 10 minutes at 23,500×g. The pellet was washed once by resuspension and rehomogenization and the final pellet was resuspended in Tris-HCl, divided in 1 ml aliquots and stored at −70° C.
(§3) Membranes were thawed and re-homogenized in incubation buffer (glycylglycine 25 mM, pH 8.0). […] Filters were rinsed extensively with ice-cold rinsing buffer (Tris-HCl 50 mM pH 7.4). Filter-bound radioactivity was determined by scintillation counting in a Topcount (Packard, Meriden, Conn.) and results were expressed as counts per minute (cpm). Non-specific binding was determined in the presence of 1 μM oxymetazoline for the hα2A receptor and 1 μM spiroxatrine for hα2C receptors.
(§4) Data from assays in the presence of compound were calculated as a percentage of total binding measured in the absence of test compound. Inhibition curves, plotting percent of total binding versus the log value of the concentration of the test compound, were automatically generated, and sigmoidal inhibition curves were fitted using non-linear regression. The pIC50 values of test compounds were derived from individual curves.

[2] = molecular target: T2, 5HT-Transporter (Homo sapiens, UniProt P31645); assay: Binding experiment for the 5HT-transporter ([3H]paroxetine, human platelet membranes)
T2 construct: Human platelet membranes (Oceanix Biosciences Corporation, Hanover, Md., USA) were thawed; tissue Oceanix Biosciences Corporation; host or cells: human platelet membranes
T2 sequence (P31645 whole entry): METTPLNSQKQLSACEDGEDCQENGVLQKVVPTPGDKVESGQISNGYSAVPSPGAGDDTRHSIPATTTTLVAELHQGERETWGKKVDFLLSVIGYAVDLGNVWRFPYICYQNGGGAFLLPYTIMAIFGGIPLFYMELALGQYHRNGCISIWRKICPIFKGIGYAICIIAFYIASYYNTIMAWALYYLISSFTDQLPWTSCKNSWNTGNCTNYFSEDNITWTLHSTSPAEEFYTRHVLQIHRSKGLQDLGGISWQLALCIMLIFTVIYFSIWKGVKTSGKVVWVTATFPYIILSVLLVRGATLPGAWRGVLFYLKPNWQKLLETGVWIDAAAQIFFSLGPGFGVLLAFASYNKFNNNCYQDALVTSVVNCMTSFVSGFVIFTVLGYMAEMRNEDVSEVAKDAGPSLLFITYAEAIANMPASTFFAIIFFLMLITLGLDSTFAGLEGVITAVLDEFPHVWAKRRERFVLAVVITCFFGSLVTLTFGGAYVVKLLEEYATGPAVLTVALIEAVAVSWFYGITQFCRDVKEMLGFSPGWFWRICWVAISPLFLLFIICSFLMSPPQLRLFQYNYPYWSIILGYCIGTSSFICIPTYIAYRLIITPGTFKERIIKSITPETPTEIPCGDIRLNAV
Experimental: as §1
Human platelet membranes (Oceanix Biosciences Corporation, Hanover, Md., USA) were thawed, diluted in buffer (Tris-HCl 50 mM, 120 mM NaCl and 5 mM KCl) and quickly (max 3 s) homogenised with an Ultraturrax homogenizer. […] Incubation was stopped by rapid filtration of the incubation mixture over GF/B filters, pre-wetted with 0.1% polyethyleneamine, using a Filtermate196 harvester (Packard, Meriden, Conn.). Filters were rinsed extensively with ice-cold buffer and radioactivity on the filters was counted in a Topcount liquid scintillation counter (Packard, Meriden, Conn.). Data were expressed as cpm. Imipramine (at 1 μM final concentration) was used to determine the non-specific binding.
as §4

[3] = molecular target: T3, human adrenergic-α2A receptor (Homo sapiens, UniProt P08913); assay: Radioligand binding experiment for hα2A receptor ([3H]raulwolscine, CHO cell membranes)
T3 construct: expressed in transfected cells; host or cells: CHO cells, stably transfected; membranes
T3 sequence (P08913 1-465): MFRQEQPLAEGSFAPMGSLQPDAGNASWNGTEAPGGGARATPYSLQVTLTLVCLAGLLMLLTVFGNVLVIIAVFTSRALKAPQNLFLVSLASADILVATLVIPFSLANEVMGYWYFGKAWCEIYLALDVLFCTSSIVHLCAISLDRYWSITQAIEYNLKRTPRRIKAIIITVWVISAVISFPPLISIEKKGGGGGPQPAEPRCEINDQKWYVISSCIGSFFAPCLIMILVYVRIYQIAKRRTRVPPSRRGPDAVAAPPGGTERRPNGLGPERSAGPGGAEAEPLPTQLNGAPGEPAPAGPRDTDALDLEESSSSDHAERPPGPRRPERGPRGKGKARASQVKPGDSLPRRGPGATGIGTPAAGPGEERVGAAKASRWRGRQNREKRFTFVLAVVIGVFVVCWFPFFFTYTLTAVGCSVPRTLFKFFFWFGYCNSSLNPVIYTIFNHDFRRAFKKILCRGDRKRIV
Experimental: as §1, §2, §3, §4

[4] = [3H]raulwolscine 1 nM, membranes of CHO cells transfected with human α2C receptor, read-out: h-α2C pIC50 (converted)
[5] = [3H]paroxetine 0.5 nM, read-out: h-5HTT pIC50 (converted)
[6] = [3H]raulwolscine 1 nM, membranes of CHO cells transfected with human α2A receptor, read-out: h-α2A pIC50 (converted)

O=c1c(NC2CCN(CC(c3ccccc3)c3ccccc3)CC2)nccn1Cc1ccccc1Br [Compound 9-7]
IC50 [1, 4]: 631 nM
IC50 [2, 5]: > 10000 nM
IC50 [3, 6]: 1000 nM

O=c1c(NC2CCN(Cc3ccc(OCc4ccccc4)cc3)CC2)nccn1Cc1cccc(Br)c1 [Compound 11-6]
IC50 [1, 4]: 794 nM
IC50 [2, 5]: 1580 nM
IC50 [3, 6]: 631 nM

O=C1c2ccccc2C(=O)N1CCCn1ccnc(NC2CCN(CC(c3ccccc3)c3ccccc3)CC2)c1=O [Compound 9-6]
IC50 [1, 4]: 398 nM
IC50 [2, 5]: 6310 nM
IC50 [3, 6]: 1260 nM

O=c1[nH]ccnc1N1CCN(Cc2cccc(-c3ccccc3)c2)CC1 [Compound 3-3]
IC50 [1, 4]: 316 nM
IC50 [2, 5]: > 10000 nM
IC50 [3, 6]: 316 nM

COC(=O)Cn1ccnc(NC2CCN(CCCc3ccccc3)CC2)c1=O [Compound 7-6]
IC50 [1, 4]: 794 nM
IC50 [2, 5]: > 10000 nM
IC50 [3, 6]: 3980 nM

O=c1c(NC2CCN(Cc3ccc(-c4ccccc4)cc3)CC2)nccn1Cc1ccccc1Br [Compound 1-6]
IC50 [1, 4]: 501 nM
IC50 [2, 5]: 398 nM
IC50 [3, 6]: 794 nM

NCc1ccc(Cn2ccnc(NC3CCN(Cc4ccccc4)CC3)c2=O)cc1 [Compound 5-2]
IC50 [1, 4]: 631 nM
IC50 [2, 5]: > 10000 nM
IC50 [3, 6]: 1000 nM

O=c1c(NC2CCN(CCc3ccccc3)CC2)nccn1Cc1cccc(Br)c1 [Compound 6-8]
IC50 [1]: 398 nM
IC50 ([2]; h-5HTT pIC50, [3H]paroxetine 0.5 nM): 5010 nM
IC50 [3]: 1000 nM

O=c1c(NC2CCN(Cc3ccc(-c4ccccc4)cc3)CC2)nccn1CC1CCCCO1 (stereo not drawn) [Compound 1-9]
IC50 [1, 4]: 631 nM
IC50 [2, 5]: 316 nM
IC50 [3, 6]: 2000 nM

O=c1c(NC2CCN(Cc3ccc(OCc4ccccc4)cc3)CC2)nccn1CCN1CCCCC1 [Compound 11-4]
IC50 [1, 4]: 794 nM
IC50 [2, 5]: > 10000 nM
IC50 [3, 6]: 1580 nM

O=c1c(NC2CCN(CCCc3ccccc3)CC2)nccn1Cc1cccc(Br)c1 [Compound 7-12]
IC50 [1, 4]: 501 nM
IC50 [2, 5]: 2510 nM
IC50 [3, 6]: 2000 nM

CC(C)(C)OC(=O)NCCCn1ccnc(N2CCN(Cc3ccc(-c4ccccc4)cc3)CC2)c1=O [Compound 2-1]
IC50 [1, 4]: 631 nM
IC50 [2, 5]: 1580 nM
IC50 [3, 6]: 1260 nM

NCc1ccc(Cn2ccnc(NC3CCN(CCCc4ccccc4)CC3)c2=O)cc1 [Compound 7-1]
IC50 [1, 4]: 100 nM
IC50 [2, 5]: 794 nM
IC50 [3, 6]: 316 nM

O=c1c(NC2CCN(Cc3ccc(-c4ccccc4)cc3)CC2)nccn1Cc1ccc(Br)cc1 [Compound 1-8]
IC50 [1, 4]: 794 nM
IC50 [2, 5]: 631 nM
IC50 [3, 6]: 1000 nM

CC(C)(C)OC(=O)NCc1ccc(Cn2ccnc(N3CCN(Cc4ccccc4)CC3)c2=O)cc1 [Compound 10-2]
IC50 [1, 4]: 316 nM
IC50 [2, 5]: > 10000 nM
IC50 [3, 6]: 251 nM

COC(=O)Cn1ccnc(NC2CCN(Cc3ccc(-c4ccccc4)cc3)CC2)c1=O [Compound 1-5]
IC50 [1, 4]: 316 nM
IC50 [2, 5]: 5010 nM
IC50 [3, 6]: 1260 nM

NCc1ccc(Cn2ccnc(N3CCC(c4ccccc4)CC3)c2=O)cc1 [Compound 4-2]
IC50 [1, 4]: 794 nM
IC50 [2, 5]: > 10000 nM
IC50 [3, 6]: 501 nM

From patent US20100105694A1, “SUBSTITUTED PYRAZINONE DERIVATIVES FOR USE AS A MEDICINE” (priority 2006, published 2010)
